Results as given in US8076487B2, “Pyridone derivative and herbicide” (Kumiai Chemical Industry Co., Ltd., priority 2006, dated 2011).

Assays:
Assay type in all cases: in vivo
[1] = test system: Japanese bulrush (Scirpus juncoides Roxb.); test: Test Example 1: herbicidal effect by soil application to paddy field; conditions: paddy field soil application; active ingredient 1,000 g per 1 hectare; wettable powder added dropwise to water surface the day after sowing; examined on the 21st day after application
Method in brief: (§1)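 Plants were sown in flooded (3 cm) paddy soil and evaluated for herbicidal effect 21 days after soil application in a greenhouse.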

[2] = test system: early watergrass (Echinochloa oryzicola Vasing); test: as above; conditions: paddy field soil application; active ingredient 1,000 g per 1 hectare; wettable powder added dropwise to water surface the day after sowing; examined on the 21st day after application
Method in brief: as §1

[3] = test system: heartshape false pickerelweed (Monochoria vaginalis (Burm.f.) C.Presl); test: as above; conditions: paddy field soil application; active ingredient 1,000 g per 1 hectare; wettable powder added dropwise to water surface the day after sowing; examined on the 21st day after application
Method in brief: as §1

[4] = test system: velvetleaf (Abutilon theophrasti medicus); test: Test Example 3: herbicidal effect by application to upland field (foliage treatment); conditions: 14th day after application; for herbicidal effect (index), Velvetleaf: foliage treatment, plants grown two weeks, 1,000 g active ingredient per hectare; for herbicidal effect, Velvetleaf: foliage treatment, 1,000 g active ingredient per 1 hectare, greenhouse
Method in brief: (§2)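 Upland foliage test in greenhouse pots of field soil: seedlings sprayed at two weeks post-sowing with 1,000 g/ha active ingredient (wettable powder, 1,000 L water/ha). Scored 14 d after application.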

[5] = test system: barnyardgrass (Echinochloa crus-galli (L.) P. Beauv. var. crus-galli); test: as above; conditions: 14th day after application; for herbicidal effect (index), Barnyardgrass: foliage treatment, plants grown two weeks, 1,000 g active ingredient per hectare; for herbicidal effect, Barnyardgrass: foliage treatment, 1,000 g active ingredient per 1 hectare, greenhouse
Method in brief: as §2

[6] = test system: green foxtail (Setaria viridis (L.) P. Beauv.); test: as above; conditions: 14th day after application; for herbicidal effect (index), Green Foxtail: foliage treatment, plants grown two weeks, 1,000 g active ingredient per hectare; for herbicidal effect, Green Foxtail: foliage treatment, 1,000 g active ingredient per 1 hectare, greenhouse
Method in brief: as §2

[7] = test system: slender amaranth (Amaranthus viridis L.); test: as above; conditions: 14th day after application; for herbicidal effect (index), Slender Amaranth: foliage treatment, plants grown two weeks, 1,000 g active ingredient per hectare; for herbicidal effect, Slender Amaranth: foliage treatment, 1,000 g active ingredient per 1 hectare, greenhouse
Method in brief: as §2

[8] = test system: velvetleaf (Abutilon theophrasti medicus); test: Test Example 2: herbicidal effect by soil application to upland field; conditions: soil surface spray, upland field soil, 1,000 g active ingredient per hectare, 21st day after application
Method in brief: (§3)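 Scoring on a standard scale took place 21 days after application, with plants kept in a greenhouse. Active ingredient (1,000 g/ha, as diluted wettable powder, 1,000 L/ha) was sprayed evenly onto soil directly after sowing and covering seeds.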

[9] = test system: barnyardgrass (Echinochloa crus-galli (L.) P. Beauv. var. crus-galli); test: as above; conditions: soil surface spray, upland field soil, 1,000 g active ingredient per hectare, 21st day after application
Method in brief: as §3

[10] = test system: green foxtail (Setaria viridis (L.) P. Beauv.); test: as above; conditions: soil surface spray, upland field soil, 1,000 g active ingredient per hectare, 21st day after application
Method in brief: as §3

[11] = test system: slender amaranth (Amaranthus viridis L.); test: as above; conditions: soil surface spray, upland field soil, 1,000 g active ingredient per hectare, 21st day after application
Method in brief: as §3

Row | SMILES | herbicidal effect, Scirpus juncoides Roxb. [1] | herbicidal effect, Echinochloa oryzicola Vasing [2] | herbicidal effect, Monochoria vaginalis (Burm. f.) C. Presl [3] | herbicidal effect (index), Velvetleaf [4] | herbicidal effect (index), Barnyardgrass [5] | herbicidal effect (index), Green Foxtail [6] | herbicidal effect (index), Slender Amaranth [7] | herbicidal effect (index), Velvetleaf [8] | herbicidal effect (index), Barnyardgrass [9] | herbicidal effect (index), Green Foxtail [10] | herbicidal effect (index), Slender Amaranth [11] | herbicidal effect, Velvetleaf [4] | herbicidal effect, Barnyardgrass [5] | herbicidal effect, Green Foxtail [6] | herbicidal effect, Slender Amaranth [7]
1 | COCCOCCn1c(C(F)(F)F)ccc(C(=O)C2=C(O)CCCC2=O)c1=O [I-34] | 5 (90% or more of herbicidal effect and crop phytotoxicity) | 5 (90% or more of herbicidal effect and crop phytotoxicity) | 5 (90% or more of herbicidal effect and crop phytotoxicity) | 5 (90% or more of herbicidal effect and crop phytotoxicity) | 5 (90% or more of herbicidal effect and crop phytotoxicity) | 5 (90% or more of herbicidal effect and crop phytotoxicity) | 5 (90% or more of herbicidal effect and crop phytotoxicity) | 5 (90% or more of herbicidal effect and crop phytotoxicity) | 5 (90% or more of herbicidal effect and crop phytotoxicity) | 5 (90% or more of herbicidal effect and crop phytotoxicity) | 5 (90% or more of herbicidal effect and crop phytotoxicity) |  |  |  | 
2 | CC1(C)C(=O)C(C(=O)c2ccc(C(F)(F)F)n(-c3ccccc3)c2=O)=C(O)C(C)(C)C1=O [II-41] | 4 (70 to less than 90% of herbicidal effect and crop phytotoxicity) | 5 (90% or more of herbicidal effect and crop phytotoxicity) | 5 (90% or more of herbicidal effect and crop phytotoxicity) |  |  |  |  | 5 (90% or more of herbicidal effect and crop phytotoxicity) | 4 (70 to less than 90% of herbicidal effect and crop phytotoxicity) | 5 (90% or more of herbicidal effect and crop phytotoxicity) | 5 (90% or more of herbicidal effect and crop phytotoxicity) | 5 (90% or more of herbicidal effect and crop phytotoxicity) | 5 (90% or more of herbicidal effect and crop phytotoxicity) | 5 (90% or more of herbicidal effect and crop phytotoxicity) | 4 (70 to less than 90% of herbicidal effect and crop phytotoxicity)
3 | O=C1CCCC(O)=C1C(=O)c1ccc(C(F)(F)F)n(-c2ccc(F)cc2)c1=O [I-93] | 5 (90% or more of herbicidal effect and crop phytotoxicity) | 5 (90% or more of herbicidal effect and crop phytotoxicity) | 5 (90% or more of herbicidal effect and crop phytotoxicity) | 5 (90% or more of herbicidal effect and crop phytotoxicity) | 5 (90% or more of herbicidal effect and crop phytotoxicity) | 5 (90% or more of herbicidal effect and crop phytotoxicity) | 5 (90% or more of herbicidal effect and crop phytotoxicity) | 5 (90% or more of herbicidal effect and crop phytotoxicity) | 5 (90% or more of herbicidal effect and crop phytotoxicity) | 5 (90% or more of herbicidal effect and crop phytotoxicity) | 5 (90% or more of herbicidal effect and crop phytotoxicity) |  |  |  | 
4 | COC(C)Cn1c(C(F)(F)F)ccc(C(=O)C2=C(O)C3CCC(C3)C2=O)c1=O (centres unmarked) [III-24] | 5 (90% or more of herbicidal effect and crop phytotoxicity) | 5 (90% or more of herbicidal effect and crop phytotoxicity) | 5 (90% or more of herbicidal effect and crop phytotoxicity) |  |  |  |  | 5 (90% or more of herbicidal effect and crop phytotoxicity) | 5 (90% or more of herbicidal effect and crop phytotoxicity) | 5 (90% or more of herbicidal effect and crop phytotoxicity) | 5 (90% or more of herbicidal effect and crop phytotoxicity) | 5 (90% or more of herbicidal effect and crop phytotoxicity) | 5 (90% or more of herbicidal effect and crop phytotoxicity) | 5 (90% or more of herbicidal effect and crop phytotoxicity) | 5 (90% or more of herbicidal effect and crop phytotoxicity)
5 | CCCn1c(C(F)(F)F)ccc(C(=O)C2=C(O)C3CCC(C3)C2=O)c1=O (centres unmarked) [III-3] | 5 (90% or more of herbicidal effect and crop phytotoxicity) | 5 (90% or more of herbicidal effect and crop phytotoxicity) | 5 (90% or more of herbicidal effect and crop phytotoxicity) |  |  |  |  | 5 (90% or more of herbicidal effect and crop phytotoxicity) | 5 (90% or more of herbicidal effect and crop phytotoxicity) | 5 (90% or more of herbicidal effect and crop phytotoxicity) | 5 (90% or more of herbicidal effect and crop phytotoxicity) | 5 (90% or more of herbicidal effect and crop phytotoxicity) | 5 (90% or more of herbicidal effect and crop phytotoxicity) | 5 (90% or more of herbicidal effect and crop phytotoxicity) | 5 (90% or more of herbicidal effect and crop phytotoxicity)
6 | Cn1ncc(C(=O)c2ccc(C(F)(F)F)n(CC3CCCO3)c2=O)c1O (centres unmarked) [IV-129] | 5 (90% or more of herbicidal effect and crop phytotoxicity) | 5 (90% or more of herbicidal effect and crop phytotoxicity) | 5 (90% or more of herbicidal effect and crop phytotoxicity) |  |  |  |  | 5 (90% or more of herbicidal effect and crop phytotoxicity) | 4 (70 to less than 90% of herbicidal effect and crop phytotoxicity) | 3 (50 to less than 70% of herbicidal effect and crop phytotoxicity) | 5 (90% or more of herbicidal effect and crop phytotoxicity) | 5 (90% or more of herbicidal effect and crop phytotoxicity) | 5 (90% or more of herbicidal effect and crop phytotoxicity) | 4 (70 to less than 90% of herbicidal effect and crop phytotoxicity) | 5 (90% or more of herbicidal effect and crop phytotoxicity)
7 | CCCS(=O)(=O)Oc1c(C(=O)c2ccc(C(F)(F)F)n(CC(OC)OC)c2=O)cnn1C [IV-118] | 5 (90% or more of herbicidal effect and crop phytotoxicity) | 5 (90% or more of herbicidal effect and crop phytotoxicity) | 5 (90% or more of herbicidal effect and crop phytotoxicity) |  |  |  |  | 5 (90% or more of herbicidal effect and crop phytotoxicity) | 5 (90% or more of herbicidal effect and crop phytotoxicity) | 5 (90% or more of herbicidal effect and crop phytotoxicity) | 5 (90% or more of herbicidal effect and crop phytotoxicity) | 5 (90% or more of herbicidal effect and crop phytotoxicity) | 5 (90% or more of herbicidal effect and crop phytotoxicity) | 5 (90% or more of herbicidal effect and crop phytotoxicity) | 5 (90% or more of herbicidal effect and crop phytotoxicity)
